According to ChEMBL document CHEMBL1142268, “Histone deacetylase inhibitors: from bench to clinic” (J Med Chem, 2008):
Values belong to the molecule of their own block, whether it stands above or below them.

What was measured:
HCT-116 = assay: Inhibition of human HCT116 cells; type: functional, cell-based
Histone deacetylase 1 [1] = molecular target: T1, Histone deacetylase 1 (Homo sapiens, UniProt Q13547)
MKN-45 = assay: Antiproliferative activity against human MKN45 cells; type: functional, cell-based
SK-BR-3 = assay: Antiproliferative activity against human SKBR3 cells; type: functional, cell-based
Histone deacetylase [2] = assay: Inhibition of HDAC from human SNU16 cells; settings: snu-16
A549 = assay: cells; settings: Homo sapiens
Description: Antiproliferative activity against human A549 cells

Histone deacetylase [3] = assay: Inhibition of HDAC from human Jurkat cells
Jurkat = assay: Inhibition of human Jurkat cells; type: functional, cell-based
Histone deacetylase [4] = assay: Inhibition of HDAC in human CEM cells; type: cell-based; settings: ccrf-cem
Histone deacetylase [5] = assay: Inhibition of human liver HDAC
CCRF-CEM = assay: Inhibition of human CEM cells assessed as viability; type: functional, cell-based
MCF7 = assay: Inhibition of human MCF7 cells; type: functional, cell-based
SW-620 = assay: Inhibition of human SW620 cells; type: functional, cell-based
[6] = Inhibition of human CCD1059SK cells; type: functional, cell-based
[7] = Inhibition of mouse SC9 cells; type: functional, cell-based
NCI-H460 = assay: Inhibition of human NCI-H460 cells; type: functional, cell-based
Histone deacetylase 8 [8] = molecular target: T2, Histone deacetylase 8 (Homo sapiens, UniProt Q9BY41)
T2 sequence (Q9BY41 whole entry): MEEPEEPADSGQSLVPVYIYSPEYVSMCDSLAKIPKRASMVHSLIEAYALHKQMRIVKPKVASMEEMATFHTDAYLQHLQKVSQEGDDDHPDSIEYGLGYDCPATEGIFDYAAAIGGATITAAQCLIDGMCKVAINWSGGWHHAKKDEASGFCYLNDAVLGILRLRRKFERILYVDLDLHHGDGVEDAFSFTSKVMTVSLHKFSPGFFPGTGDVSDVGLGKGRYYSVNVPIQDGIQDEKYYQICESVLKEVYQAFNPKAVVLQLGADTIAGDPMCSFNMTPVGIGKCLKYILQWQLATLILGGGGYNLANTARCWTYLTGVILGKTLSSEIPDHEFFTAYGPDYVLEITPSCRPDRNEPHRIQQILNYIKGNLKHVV

Histone deacetylase 1 [9] = molecular target: T1, Histone deacetylase 1; remark: listed apart in the source
Description: Inhibition of human HDAC1

Histone deacetylase [10] = assay: Inhibition of HDAC from human K562 cells; type: cell-based
[11] = Antiproliferative activity against human MDA435 cells; type: functional, cell-based; settings: MDA-MB-435
Histone deacetylase 8 [12] = molecular target: T2, Histone deacetylase 8; remark: listed apart in the source
Description: Inhibition of human HDAC8

Histone deacetylase [13] = assay: Inhibition of HDAC from human HeLa cells; type: cell-based
SQ20B = assay: Inhibition of human SQ20B cells; type: functional, cell-based
HT-1080 = assay: Inhibition of human HT1080 cells; type: functional, cell-based
Histone deacetylase 1 [14] = molecular target: T1, Histone deacetylase 1; assay: Inhibition of HDAC1 from human HeLa cells; type: cell-based
MM96L = assay: Inhibition of human MM96L cells; type: functional, cell-based
[15] = Growth inhibition of human neonatal foreskin fibroblasts cells; type: functional, cell-based; settings: Fibroblast

T1 sequence (Q13547 whole entry): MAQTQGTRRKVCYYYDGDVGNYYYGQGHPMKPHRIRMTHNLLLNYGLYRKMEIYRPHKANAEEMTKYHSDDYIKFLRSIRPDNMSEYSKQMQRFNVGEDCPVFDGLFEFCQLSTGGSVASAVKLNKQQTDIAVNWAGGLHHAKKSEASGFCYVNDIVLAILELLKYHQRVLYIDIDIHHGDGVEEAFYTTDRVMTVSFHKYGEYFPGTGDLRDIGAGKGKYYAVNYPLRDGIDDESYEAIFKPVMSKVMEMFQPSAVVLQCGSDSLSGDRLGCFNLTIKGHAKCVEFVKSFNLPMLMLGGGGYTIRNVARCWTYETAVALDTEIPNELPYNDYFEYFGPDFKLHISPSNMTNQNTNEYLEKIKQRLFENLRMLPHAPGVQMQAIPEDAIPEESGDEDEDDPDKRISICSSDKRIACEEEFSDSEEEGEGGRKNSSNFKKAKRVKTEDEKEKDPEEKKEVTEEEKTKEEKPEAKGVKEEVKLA

IC50 (HCT-116): 0.1 µM
IC50 (Histone deacetylase 1 [1]): 0.6 µM
Structure (SMILES): COc1ccc(-c2ccnc(NCc3ccc(C(=O)Nc4ccccc4N)cc3)n2)cn1

Structure (SMILES): O=C(/C=C/c1ccc(CNC(=O)c2cccnc2)cc1)NO
IC50 (MKN-45): 4.98 µM
IC50 (SK-BR-3): 1.28 µM
IC50 (Histone deacetylase [2]): 0.37 µM
IC50 (A549): 2.89 µM

IC50 (Histone deacetylase [3]): 0.14 µM
IC50 (Jurkat): 0.16 µM
Structure (SMILES): O=C(/C=C/c1ccc(CCc2nc3ccccc3[nH]2)cc1)NO

IC50 (Histone deacetylase [4]): 7.4 µM
IC50 (Histone deacetylase [5]): 0.06 µM
IC50 (CCRF-CEM): > 25 µM
Structure (SMILES): O=C(CCCCC[S+]([O-])c1ccccc1)NO (stereo not given)

IC50 (HCT-116): 0.8 µM
IC50 (MCF7): 4.9 µM
IC50 (SK-BR-3): 3.4 µM
IC50 (SW-620): 2.1 µM
IC50 [6]: 18.4 µM
IC50 (A549): 17.3 µM
Structure (SMILES): COc1ccc(CN(CCO)Cc2ccc(C(=O)Nc3ccccc3N)cc2)cc1

IC50 [7]: 52 µM
Structure (SMILES): O=C(CCCCCC(=O)N(CC(=O)Nc1cccc2cccnc12)CC(=O)Nc1cccc2cccnc12)NO

IC50 (Histone deacetylase [4]; read-out: IC50): 9.4 µM
IC50 (Histone deacetylase [5]): 0.11 µM
IC50 (CCRF-CEM): > 25 µM
Structure (SMILES): O=C(CCCCCSc1ccc(NS(=O)(=O)c2ccc(Cl)cc2)cc1)NO

EC50 (NCI-H460): > 50 µM
Structure (SMILES): O=C(CCCCCCS)Nc1ccccc1

GI50 (MCF7): 0.7 µM
Structure (SMILES): O=C(NO)c1cnc(N2CCC(NS(=O)(=O)c3ccc4ccccc4c3)CC2)s1

IC50 (HCT-116): 0.8 µM
IC50 (MCF7): 3.8 µM
IC50 (SK-BR-3): 3.5 µM
IC50 (SW-620): 2.2 µM
IC50 [6]: 41.7 µM
IC50 (A549): 20 µM
Structure (SMILES): Nc1ccccc1NC(=O)c1ccc(CN(CCO)Cc2ccc3c(c2)OCO3)cc1

IC50 (Histone deacetylase 8 [8]): 0.038 µM
IC50 (Histone deacetylase 1 [1]): 0.7 µM
Structure (SMILES): O=C(Cc1ccc(-c2csc(NC(=O)COc3ccccc3)n2)s1)NO

IC50 (Histone deacetylase 1 [9]): 0.013 µM
IC50 [7]: 317 µM
Structure (SMILES): O=C(CN(CCCCCCC(=O)Nc1ccccc1)CC(=O)Nc1ccccc1)NO

IC50 (Histone deacetylase [10]): 0.0091 µM
Structure (SMILES): CNC(=O)C(=O)CCCCCCC(=O)Nc1nc(-c2ccc(OC)cc2)cs1
IC50 [11]: 5.8 µM

IC50 (Histone deacetylase [4]; read-out: IC50): 15.5 µM
IC50 (Histone deacetylase [5]): 0.04 µM
IC50 (CCRF-CEM): > 25 µM
Structure (SMILES): O=C(CCCCCS(=O)(=O)c1ccccc1)NO

IC50 (Histone deacetylase 8 [12]): > 40 µM
IC50 (Histone deacetylase [13]): 13.3 µM
Structure (SMILES): O=C(CCCCCNC(=S)CS)Nc1ccccc1

IC50 [7]: 50 µM
Structure (SMILES): O=C(CCCCCC(=O)N(CC(=O)Nc1nc2ccccc2s1)CC(=O)Nc1nc2ccccc2s1)NO

IC50 (SQ20B): 50 µM
IC50 (Histone deacetylase [13]): 0.7 µM
Structure (SMILES): CN(C)c1ccc(CNC(=O)NCCCCCCCC(=O)NO)cc1

IC50 (Histone deacetylase [3]): 0.028 µM
IC50 (Jurkat): 0.069 µM
Structure (SMILES): O=C(/C=C/c1ccc(Cc2nc3ccccc3[nH]2)cc1)NO

IC50 (Histone deacetylase [10]): 0.0037 µM
IC50 (HT-1080): 6.9 µM
Structure (SMILES): CNC(=O)C(=O)CCCCCCC(=O)Nc1cccc(-c2ccccc2)c1
IC50 [11]: 14 µM

IC50 (Histone deacetylase 1 [9]): 0.018 µM
IC50 (Histone deacetylase 1 [14]): 0.23 µM
Structure (SMILES): COc1ccc2[nH]c(C)c(CN[C@@H](CCCCCC(C)=O)C(=O)Nc3cccc(-c4ccccc4)c3)c2c1

IC50 (Histone deacetylase [10]): 0.0043 µM
IC50 (HT-1080): 0.67 µM
Structure (SMILES): CNC(=O)C(=O)CCCCCCC(=O)Nc1nc(-c2cccnc2)cs1
IC50 [11]: 2 µM

IC50 (Histone deacetylase 1 [9]): 0.0365 µM
IC50 [7]: 555 µM
Structure (SMILES): O=C(CCCCCCC(=O)N1CCN(c2ccc(Cl)cc2)CC1)NO

IC50 (Histone deacetylase 1 [9]): 0.48 µM
IC50 (Histone deacetylase 1 [14]): 3.4 µM
Structure (SMILES): CC(=O)CCCCC[C@H](NC(=O)c1cnns1)C(=O)NCCc1c(-c2ccccc2)[nH]c2ccccc12

IC50 (Histone deacetylase 1 [9]): 0.055 µM
IC50 (Histone deacetylase 1 [14]): 0.72 µM
Structure (SMILES): CC(=O)CCCCC[C@H](Nc1cncs1)C(=O)Nc1cccc(-c2ccccc2)c1

IC50 (MM96L): 0.14 µM
Structure (SMILES): CN(C)c1ccc(C(=O)N[C@@H](CSCCCC(=O)NO)C(=O)NCc2ccccc2)cc1
IC50 [15]: 0.35 µM

IC50 (HCT-116): 5.7 µM
IC50 (MCF7): 8.4 µM
IC50 (SK-BR-3): 6.9 µM
IC50 (SW-620): 4.5 µM
IC50 [6]: 28.3 µM
IC50 (A549): 20.8 µM
Structure (SMILES): Cn1cc(CN(CCO)Cc2ccc(C(=O)Nc3ccccc3N)cc2)c2ccccc21

IC50 (HCT-116): 0.8 µM
IC50 (MCF7): 10.4 µM
IC50 (SK-BR-3): 3.6 µM
IC50 (SW-620): 3.6 µM
IC50 [6]: 94.8 µM
IC50 (A549): 24.2 µM
Structure (SMILES): Nc1ccccc1NC(=O)c1ccc(CN(CCO)Cc2ccc(F)c(F)c2)cc1

IC50 (Histone deacetylase [4]; read-out: IC50): 1.6 µM
IC50 (Histone deacetylase [5]): 0.38 µM
IC50 (CCRF-CEM): 12.3 µM
Structure (SMILES): O=C(CCCCCC[S+]([O-])c1ccc(Cl)cc1)NO (stereo not given)

IC50 (Histone deacetylase [3]): 0.15 µM
IC50 (Jurkat): 0.15 µM
Structure (SMILES): O=C(/C=C/c1cccc(Cc2nc3ccccc3[nH]2)c1)NO

IC50 (Histone deacetylase [3]): 0.096 µM
IC50 (Jurkat): 0.31 µM
Structure (SMILES): CCC(c1ccc(/C=C/C(=O)NO)cc1)c1nc2ccccc2n1CC (stereo not given)
